Holding throughout (assay): inhibition of tumour cell growth, NCI panel, 48 h
Assay [1] has as its system M14 melanoma.
In assay [2] the test system is HCT-15 colon.
For assay [3], the system named is T-47D breast.
Assay [4] has as its system HCT-116 colon.
The subject of assay [5] is HL-60(TB) leukemia.
Assay [6] deals with UACC-257 melanoma.
In assay [7] the test system is UO-31 renal.
Assay [8] deals with RXF 393 renal.
Assay [9] relates to SF-268 CNS.
In assay [10] the test system is SR leukemia.
The subject of assay [11] is SK-MEL-2 melanoma.
The test system of assay [12] is DU-145 prostate.
For assay [13], the system named is SF-295 CNS.
Assay [14] deals with LOX IMVI melanoma.
For assay [15], the system named is COLO 205 colon.
The subject of assay [16] is HS 578T breast.

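Test compounds were applied to cells in 96-well plates for 48 hours at 5 doses. TGI: concentration producing complete growth inhibition.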

On to `O=C1CC2SC(COCc3ccccc3)(CCN2Cc2ccccc2)C1` (stereo not given), for which the TGI is over 100 µM in assay [1]; over 100 µM in [2]; over 100 µM in assay [3]; over 100 µM in assay [4]; 43 µM in assay [5]; over 100 µM in assay [6]. Moreover, the TGI in assay [7], in [8], in [9], in [10], in assay [11] and in assay [12] was over 100 µM in each case. Besides, the TGI in assay [13], in assay [14], in assay [15] and in assay [16] was over 100 µM in each case.

As to `CC(O)[C@@]1(c2ccccc2)CC2(CCN(C)CC2)O[C@H]1C` (stereo not given in full), the TGI in assay [1] is over 100 µM; in assay [2], over 100 µM; in assay [3], 98 µM; in assay [5] it was 95 µM; in [6], over 100 µM; in assay [7], over 100 µM. The TGI in [8], in assay [9], in assay [10], in [11], in assay [12] and in [13] was over 100 µM throughout. Further, the TGI in assay [14], in assay [15] and in assay [16] was over 100 µM throughout.

As to `N/C(=N\S(=O)(=O)c1cc(Cl)c(Oc2ccc([N+](=O)[O-])cc2Cl)c(Cl)c1)Nc1ccc(Cl)cc1`, the TGI in assay [1] was found to be 36.4 µM; in assay [2] it was 33.3 µM; in assay [3] it was 34.2 µM; in [4] it was 34.3 µM; in assay [5], 39.6 µM; in [6], 32.8 µM. Also, the TGI was 34.1 µM in assay [7]; 31.8 µM in assay [8]; over 100 µM in assay [9]; 43.3 µM in assay [10]; 36.2 µM in assay [11]; 35.8 µM in assay [12]. Moreover, the TGI was 39.5 µM in assay [13], 31.6 µM in assay [14], 30.5 µM in [15] and over 100 µM in [16].

With `CC(=O)OCC1OC(n2nc(Cc3ccccc3)c(=S)[nH]c2=S)C(OC(C)=O)C(OC(C)=O)C1OC(C)=O` (stereo not given), the TGI in [1] is 38.1 µM; in [2], 40.5 µM; in assay [3], 60.2 µM; in [4], 47.1 µM; in assay [5], 27.2 µM; in assay [6], 37.8 µM. The TGI in [7] was 51.7 µM; in assay [8], 44.6 µM; in [9], 52.2 µM; in [10], over 100 µM; in assay [11], 35.1 µM; in [12], 64.3 µM. Also, the TGI in assay [13] was over 100 µM; in [14], 41.9 µM; in assay [15] it was over 100 µM; in [16] it was 45.4 µM.

As for `COc1cc(/C=N/NC2=NCCCCN2)ccc1O`, the TGI in assay [1], in assay [2], in assay [3], in [4], in [5] and in [6] was over 100 µM throughout. The TGI in assay [7], in assay [8], in assay [9], in assay [10], in [11] and in assay [12] was over 100 µM each time. The TGI in assay [13], in assay [14], in assay [15] and in [16] was over 100 µM in each case.

For `CN(CCCn1ccnc1[N+](=O)[O-])CCCn1ccnc1[N+](=O)[O-]`, the TGI in [1], in assay [2], in [3], in assay [4], in assay [5] and in assay [6] was over 100 µM throughout. Also, the TGI in assay [7], in assay [8], in assay [9], in [10], in assay [11] and in assay [12] was over 100 µM in each case. The TGI in assay [13], in assay [14], in [15] and in [16] was over 100 µM throughout.

With `O=c1oc2ccc([N+](=O)[O-])cc2cc1Br`, the TGI in [1], in assay [3], in [4], in assay [5], in assay [6] and in [7] was over 100 µM each time. The TGI in assay [8], in assay [9], in assay [10], in assay [11], in assay [12] and in [13] was over 100 µM throughout. For the same molecule, the TGI in assay [14], in assay [15] and in assay [16] was over 100 µM throughout.

Turning to `O=C1c2ccccc2C(=O)c2c(NCCCN3CCOCC3)ccc(NCCCN3CCOCC3)c21`, the TGI in assay [1] was 10.1 µM; in assay [2], over 100 µM; in assay [3], 83.9 µM; in assay [4] it was 10.4 µM; in assay [5] it was over 100 µM; in [6] it was 9.91 µM. The TGI in [7] was 17.4 µM; in assay [8], 27.1 µM; in [9], 20.9 µM; in assay [10], over 100 µM; in assay [11], 25.5 µM; in assay [12], 52.6 µM. For the same molecule, the figures for the TGI in assay [13], in [14] and in assay [16] were 11.4 µM, 3.61 µM and 28.5 µM, respectively.

In the case of `CCCCc1ccc(C#CC#Cc2ccc(CCCC)s2)s1`, the TGI in assay [1], in assay [2], in assay [3], in [4], in assay [5] and in [6] was over 100 µM throughout. Moreover, the TGI in [7], in assay [8], in [9], in [10], in [12] and in [13] was over 100 µM throughout. Moreover, the TGI in assay [15] and in assay [16] was over 100 µM each time.

Turning to `COC(=O)/C(C#N)=C(\N)c1c(C)c2ccccc2oc1=N`, the TGI in [2], in [3], in [4], in [5], in assay [6] and in [8] was over 100 µM in each case. Also, the TGI in assay [10], in [11], in [12], in [13], in [14] and in assay [15] was over 100 µM each time. In assay [16], this molecule gave a TGI of over 100 µM.

As for `S=C=NC1CCC(c2cc3ccccc3s2)(N2CCCCC2)CC1` (stereo not given), the TGI in assay [1] came out at 4.39 µM; in [2], 3.7 µM; in [3] it was 25.3 µM; in assay [4], 3.58 µM; in assay [5] it was 3.09 µM; in [6], 3.54 µM. The TGI in assay [7] stood at 3.66 µM; in assay [8], 3.16 µM; in assay [9] it was 4.3 µM; in [10], 2.12 µM; in assay [12] it was 4.52 µM; in assay [13], 7.39 µM. For the same molecule, the TGI amounted to 3.03 µM in assay [14], 3.93 µM in [15] and 4.73 µM in [16].

On to `c1ccc([P+](CCCCCC[P+](c2ccccc2)(c2ccccc2)c2ccccc2)(c2ccccc2)c2ccccc2)cc1`, for which the TGI in [1] was over 100 µM; in assay [2], over 100 µM; in assay [3] it was over 100 µM; in assay [4], over 100 µM; in assay [5] it was 67 µM; in assay [6], 8.64 µM. Besides, the TGI in assay [7], in [8], in [9], in [10], in [12] and in assay [13] was over 100 µM in each case. Also, the TGI is 38.6 µM in assay [14], 13.8 µM in assay [15] and over 100 µM in [16].

`COC1/C=C/C(C)C(C(C)C(OC)C(C)CCC(=O)C(C)C(CC(=O)O)OC)OC(=O)/C=C/C=C(\C)CC(OC)CC2=CC(=O)O[C@H](C2)C(C)C(OC)CC(OC)/C=C/C(C)C(OC)C1` (stereo not given in full): the TGI in assay [1] was over 4.35 µM; in assay [2] it was over 4.35 µM; in assay [3] it was over 4.35 µM; in [5], 1.73 µM; in assay [6], over 4.35 µM; in assay [7] it was 1.22 µM. In addition, the TGI in [9] was 0.207 µM; in assay [10] it was over 4.35 µM; in assay [11], over 4.35 µM; in assay [12], over 4.35 µM; in assay [13], 2.19 µM; in [15], over 4.35 µM. The same molecule returned a TGI in assay [16] of 0.387 µM.

Consider `Clc1c2ccccc2nc2c1[nH]c1ccccc12`, for which the TGI in assay [1] was over 100 µM; in [2], over 100 µM; in [3] it was over 100 µM; in assay [4], over 100 µM; in [5] it was 41.4 µM; in [6] it was over 100 µM. The TGI in [7] was over 100 µM; in assay [9] it was over 100 µM; in assay [10], 43.6 µM; in assay [11], over 100 µM; in [12], over 100 µM; in [13] it was over 100 µM. Besides, the TGI in assay [14] was over 100 µM; in [15], 11.8 µM; in [16], over 100 µM.

For the molecule `O=C1O/C(=C\c2ccc(O)cc2)C(c2ccc(O)c(Cl)c2)=C1Cl`, the TGI in assay [1] is over 100 µM; in assay [2], over 100 µM; in assay [3] it was over 100 µM; in [5] it was 94.7 µM; in assay [6], over 100 µM; in [7], over 100 µM. Moreover, the TGI in assay [8] is 73 µM; in assay [9], over 100 µM; in [10] it was over 100 µM; in assay [11], 77.4 µM; in assay [12], over 100 µM; in assay [13], over 100 µM. The TGI in [14], in assay [15] and in assay [16] was over 100 µM throughout.

For the molecule `COc1cc2c[n+](C)c3c(c2cc1OC)Cc1cc2c(cc1-3)OCO2`, the TGI in assay [1], in assay [2], in assay [3], in [4], in assay [5] and in [6] was over 100 µM throughout. Further, the TGI in assay [7], in [9], in assay [10], in [11], in assay [12] and in assay [13] was over 100 µM each time. In addition, the TGI in assay [14], in assay [15] and in assay [16] was over 100 µM in each case.

`O=c1c2c(F)c(F)c(F)c(F)c2sc2nccn12`: the TGI in assay [1] is 32 µM; in [2], 29 µM; in [3], 24.2 µM; in [4], 27.7 µM; in assay [5], 4.14 µM; in assay [6], 45.5 µM. In addition, the TGI is 32 µM in assay [8]; 36.2 µM in assay [9]; 18.7 µM in assay [10]; 38.5 µM in assay [11]; 41.9 µM in assay [12]; 36.3 µM in assay [13]. The TGI was determined as 26.7 µM in assay [14], 32.7 µM in [15] and 76.2 µM in assay [16].

Consider `O=C(C/C=C/c1ccccc1)c1ccccc1`, for which the TGI came out at 32.2 µM in [1]; 37 µM in [2]; 42.7 µM in [3]; 33.1 µM in assay [4]; 66 µM in [5]; 72.1 µM in [6]. Besides, the TGI was 28.2 µM in assay [7]; 34 µM in [8]; 56.8 µM in assay [9]; 49.9 µM in assay [10]; 31 µM in assay [12]; over 100 µM in assay [13]. Also, the TGI in [14] came to 30.3 µM; in assay [15], 56.6 µM; in assay [16] it was 58.6 µM.
